According to article PMC9395670 (Frontiers in Chemistry, 2022):
Entries after “also recorded” stand apart in the source; their conditions may differ. Like-named read-outs stand apart in the source and are kept apart here.

Experiments:
[1] = target: T1, horse serum BuChE (eqBuChE) (Equus caballus, UniProt P81908); test: biochemical; conditions: Ellman's method, 25°C, mean ± SEM of three experiments
T1 construct: horse serum BuChE (eqBuChE, Sigma-Aldrich); purchased Sigma-Aldrich; host or cells: horse serum
Method: (§1) This method is based on the reaction of acetylthiocholine with 5,5′´-dithio-bis-(2-nitrobenzoic) acid (DTNB) to yield the colored product.
(§2) AChE from E. electricus, and horse serum BuChE (eqBuChE, Sigma-Aldrich) 5,5-Dithiobis-(2-nitrobenzoic acid) (DTNB), and acetylthiocholine iodide (ATC) were purchased from Sigma Aldrich. […] In this procedure, five different concentrations of each compound were used at 25°C. […] For the in-vitro BuChE assay similar method has been used.

[2] = target: T2, AChE from E. electricus (Electrophorus electricus, UniProt O42275); test: biochemical
T2 construct: purchased Sigma Aldrich
Method: as §1, §2

[3] = target: AChE (Electrophorus electricus, UniProt O42275); test: Kinetics study of AChE inhibition (Lineweaver-Burk plots); format: biochemical; conditions: inhibitor at 0.32, 0.64, 1.27 μM, substrate ATCh
Method: The inhibition model of acetylcholinesterase can be categorized into irreversible-type inhibition and reversible-type inhibition. […]. The type of inhibition can be concluded with a graphical analysis of the Lineweaver-Burk reciprocal plots ([Baharloo et al., 2015]).
[…]. The experiment was assayed in triplicate.

[4] = Cell viability assay (MTT) in PC12 cells; format: cell-based; conditions: rat
Method: Safety is an important factor for CNS agents. In order to evaluate the cytotoxic effect of selected compounds 5a, 5f, 5h, 5i, and 5l, the in-vitro cell viability assay was investigated on the PC12 cell line using the MTT (3-(4,5-dimethylthiazol-2-yl)-2,5-diphenyltetrazolium bromide) assay. The PC12 cells were incubated with varying concentrations (0.01–100 μM) of the test compounds for 24 h. […] The results are expressed as the percentage of viable cells.
In order to evaluate cell viability of 5a, 5f, 5h, 5i, and 5l, the 3-(4,5-dimethylthiazol-2-yl)-2,5-diphenyl tetrazolium bromide (MTT) assay was performed using PC12 cell line. Cells were seeded in 96-well plates at a density of 5,000 cells/well for 24 h, and then cells were treated with tested compounds and glutamate (5 mM) and incubated at 37°C for 24 h. After that, the medium was removed and 20 μl of the MTT reagent (5 mg/ml) was added and incubated at 37 °C for 4 h. Then, the medium was replaced with 150 μl DMSO to solve formazan crystals. The absorbance was recorded by microplate reader apparatus (Biotek, Winooski, VT, United States) at 570 nm. The assay was performed in three independent experiments and triplicate.

[5] = target: T3, Aβ1–42 (Homo sapiens, UniProt P05067); test: Inhibition of self-induced Aβ1–42 aggregation (thioflavin T assay); format: biochemical; conditions: for Effectiveness relative to donepezil in inhibition of self-induced Aβ aggregation: 10 μM; for inhibition at 10 µM: read-out: Inhibition of Aβ aggregation (%) Self-induced
T3 construct: Aβ1–42 (Sigma A9810); purchased Sigma A9810
Method: (§3) For this purpose, we used the thioflavin T (ThT) assay.
(§4) Aβ1–42 (Sigma A9810) 50 μM was dissolved in ammonium hydroxide (1% v/v) for pre-fibrillation and incubated for 72 h at 37°C. […] Next, 50 μl of thioflavin T (ThT, 200 μM) containing 50 mM glycine-NaOH buffer (pH 8.5) was added. […] The aggregation inhibition of the tested compounds was calculated on AChE or self-induced Aβ-aggregation according to the equation (1−IFi/IFc) × 100, where IFi and IFc are the fluorescence intensities in the presence of inhibitors and in the absence of inhibitors, respectively.

[6] = target: T4, Aβ1–42 and human recombinant AChE (Homo sapiens, UniProt P22303); test: Inhibition of AChE-induced Aβ1–42 aggregation (thioflavin T assay); format: biochemical; conditions: read-out: Inhibition of Aβ aggregation (%) AChE-induced
T4 construct: Aβ1–42 (Sigma A9810); purchased Sigma C1682 (AChE); A9810 (Aβ1–42)
Method: as §3, §4

[7] = Ellman's method, 25°C, mean ± SEM of three experiments, read-out: IC50 (μM) AChE
[8] = compound at 10 μM, ThT assay, mean ± SEM of three experiments

T3 sequence (P05067 672-713 limits assumed): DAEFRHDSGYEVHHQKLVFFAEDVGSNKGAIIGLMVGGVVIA
T4 sequence (P22303 32-614): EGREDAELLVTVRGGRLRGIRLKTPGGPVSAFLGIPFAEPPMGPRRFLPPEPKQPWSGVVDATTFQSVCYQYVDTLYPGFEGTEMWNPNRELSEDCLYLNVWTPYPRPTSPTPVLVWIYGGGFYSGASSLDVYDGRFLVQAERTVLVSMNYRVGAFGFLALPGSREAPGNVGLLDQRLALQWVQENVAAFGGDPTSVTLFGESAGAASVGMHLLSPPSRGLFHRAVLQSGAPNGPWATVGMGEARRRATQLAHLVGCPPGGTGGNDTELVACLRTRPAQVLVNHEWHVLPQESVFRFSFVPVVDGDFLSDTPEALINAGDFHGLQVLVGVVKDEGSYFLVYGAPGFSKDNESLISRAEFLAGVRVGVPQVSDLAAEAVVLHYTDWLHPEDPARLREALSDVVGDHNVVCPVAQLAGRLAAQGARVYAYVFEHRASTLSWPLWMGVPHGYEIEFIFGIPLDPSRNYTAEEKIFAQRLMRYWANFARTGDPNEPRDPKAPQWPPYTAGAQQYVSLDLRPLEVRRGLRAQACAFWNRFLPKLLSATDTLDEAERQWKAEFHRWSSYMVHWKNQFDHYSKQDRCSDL
T1 sequence (P81908 whole entry): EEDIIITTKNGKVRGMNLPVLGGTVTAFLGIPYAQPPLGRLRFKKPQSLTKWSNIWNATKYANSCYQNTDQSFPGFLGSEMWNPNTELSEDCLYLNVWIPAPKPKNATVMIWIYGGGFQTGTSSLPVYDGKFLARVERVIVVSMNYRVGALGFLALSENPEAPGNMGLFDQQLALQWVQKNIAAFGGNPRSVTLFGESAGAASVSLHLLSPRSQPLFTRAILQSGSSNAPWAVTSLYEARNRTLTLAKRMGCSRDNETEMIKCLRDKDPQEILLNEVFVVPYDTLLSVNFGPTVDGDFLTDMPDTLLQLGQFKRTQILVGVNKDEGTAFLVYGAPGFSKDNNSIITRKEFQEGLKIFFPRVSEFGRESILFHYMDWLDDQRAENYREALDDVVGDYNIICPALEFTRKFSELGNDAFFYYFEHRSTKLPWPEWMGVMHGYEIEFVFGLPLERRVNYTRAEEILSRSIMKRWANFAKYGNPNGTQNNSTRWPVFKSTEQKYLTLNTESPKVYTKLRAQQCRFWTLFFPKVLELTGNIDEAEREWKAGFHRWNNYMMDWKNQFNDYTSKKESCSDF
T2 sequence (O42275 24-633): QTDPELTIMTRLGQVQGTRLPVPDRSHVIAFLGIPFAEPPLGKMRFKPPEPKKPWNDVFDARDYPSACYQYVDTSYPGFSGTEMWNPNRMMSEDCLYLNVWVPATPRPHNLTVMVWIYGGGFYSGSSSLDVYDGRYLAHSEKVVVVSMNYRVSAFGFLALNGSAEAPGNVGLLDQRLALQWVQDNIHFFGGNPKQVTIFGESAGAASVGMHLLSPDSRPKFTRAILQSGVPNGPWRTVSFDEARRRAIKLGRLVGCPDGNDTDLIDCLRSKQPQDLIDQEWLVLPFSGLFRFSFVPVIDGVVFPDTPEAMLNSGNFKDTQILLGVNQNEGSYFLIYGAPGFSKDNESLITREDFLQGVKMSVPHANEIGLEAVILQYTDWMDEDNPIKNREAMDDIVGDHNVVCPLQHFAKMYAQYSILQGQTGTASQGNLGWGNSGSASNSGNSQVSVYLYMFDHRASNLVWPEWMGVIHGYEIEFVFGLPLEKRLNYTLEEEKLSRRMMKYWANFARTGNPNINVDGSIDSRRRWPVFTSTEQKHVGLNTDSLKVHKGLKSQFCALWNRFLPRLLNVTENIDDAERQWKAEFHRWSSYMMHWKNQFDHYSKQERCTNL
Sequence of AChE (O42275 24-633): as above

Which IC50 [1] does the source give for `Nc1c(-c2cc[n+](Cc3ccc(Cl)cc3)cc2)oc2ccccc12` [5k, 4-(3-Aminobenzofuran-2-yl)-1-(4-chlorobenzyl) pyridin-1-ium chloride] here?
The IC50 was 31.2 ± 2.56 µM.

And the IC50 [2, 7]?
The IC50 was 16.6 ± 0.52 µM.

What does the source list for `COc1cccc(C[n+]2ccc(-c3oc4ccccc4c3N)cc2)c1` [5e, 4-(3-Aminobenzofuran-2-yl)-1-(3-methoxybenzyl) pyridin-1-ium chloride]?
IC50 [1]: > 100 µM; IC50 [2, 7]: 81.1 ± 1.61 µM

With `Cc1ccc(C[n+]2ccc(-c3oc4ccccc4c3N)cc2)cc1` [5d, 4-(3-Aminobenzofuran-2-yl)-1-(4-methylbenzyl) pyridin-1-ium chloride] as the compound, how does the IC50 [1] read?
The IC50 was 25.3 ± 1.91 µM.

And the IC50 [2, 7]?
The IC50 was 29.3 ± 0.82 µM.

What does the source list for `Nc1c(-c2cc[n+](Cc3ccc(Br)cc3)cc2)oc2ccccc12` [5n, 4-(3-Aminobenzofuran-2-yl)-1-(4-bromobenzyl) pyridin-1-ium chloride]?
IC50 [1]: 22.6 ± 3.33 µM; IC50 [2, 7]: 15.8 ± 0.91 µM

What does the source list for `Nc1c(-c2cc[n+](Cc3ccccc3F)cc2)oc2ccccc12.[Cl-]` [5f, 4-(3-Aminobenzofuran-2-yl)-1-(2-fluorobenzyl) pyridin-1-ium chloride]?
Type of inhibition on AChE [3]: mixed-type inhibition; also recorded: mixed-type inhibitory pattern; viability at 24 h [4]: 86.4 ± 2.6%; Effectiveness relative to donepezil in inhibition of self-induced Aβ aggregation ([5]; ThT assay): about 2 fold; inhibition at 10 µM [5, 8]: 29.8 ± 1.8%; IC50 [1]: 0.55 ± 0.07 µM; inhibition at 100 µM [6]: 30.1 ± 1.9%; IC50 [2]: 0.64 ± 0.04 µM

What does the source list for `Nc1c(-c2cc[n+](Cc3ccccc3Br)cc2)oc2ccccc12` [5l, 4-(3-Aminobenzofuran-2-yl)-1-(2-bromobenzyl) pyridin-1-ium chloride]?
viability at 24 h [4]: 87.1 ± 2.9%; inhibition at 10 µM [5, 8]: 25.7 ± 2.7%; IC50 [1]: 10.5 ± 0.19 µM; inhibition at 100 µM [6]: 22.4 ± 2.3%; IC50 [2]: 1.34 ± 0.01 µM

For `Nc1c(-c2cc[n+](Cc3cccc(Br)c3)cc2)oc2ccccc12` [5m, 4-(3-Aminobenzofuran-2-yl)-1-(3-bromobenzyl) pyridin-1-ium chloride], which IC50 [1] is on record?
Its IC50 is 13.9 ± 1.2 µM.

What about the IC50 [2, 7] of the same compound?
Its IC50 is 4.47 ± 0.02 µM.

With `Cc1ccccc1C[n+]1ccc(-c2oc3ccccc3c2N)cc1` [5b, 4-(3-Aminobenzofuran-2-yl)-1-(2-methylbenzyl) pyridin-1-ium chloride] as the compound, how does the IC50 [1] read?
Its IC50 is 17.4 ± 2.45 µM.

What about the IC50 [2, 7] of the same compound?
Its IC50 is 3.29 ± 0.01 µM.

Which IC50 [1] does the source give for `Cc1cccc(C[n+]2ccc(-c3oc4ccccc4c3N)cc2)c1` [5c, 4-(3-Aminobenzofuran-2-yl)-1-(3-methylbenzyl) pyridin-1-ium chloride] here?
Its IC50 is 12.9 ± 3.56 µM.

What about the IC50 [2, 7] of the same compound?
Its IC50 is 3.32 ± 0.04 µM.

With `Nc1c(-c2cc[n+](Cc3ccccc3)cc2)oc2ccccc12` [5a, 4-(3-Aminobenzofuran-2-yl)-1-benzylpyridin-1-ium chloride] as the compound, how does the viability at 24 h [4] read?
The viability at 24 h was 85.9 ± 1.5%.

What about the inhibition at 10 µM [5, 8] of the same compound?
Its inhibition at 10 µM is 17.6 ± 3.8%.

And the IC50 [1]?
The IC50 was 0.82 ± 0.07 µM.

And the inhibition at 100 µM [6]?
Its inhibition at 100 µM is 22.4 ± 1.6%.

And the IC50 [2]?
The IC50 was 0.81 ± 0.02 µM.

Which inhibition at 10 µM [5] does the source give for `COc1cc2c(cc1OC)C(=O)C(CC1CCN(Cc3ccccc3)CC1)C2` (stereo not drawn) [Donepezil, reference compound] here?
The inhibition at 10 µM was 14.9 ± 2.5%.

Which results are given for `Nc1c(-c2cc[n+](Cc3ccc([N+](=O)[O-])cc3)cc2)oc2ccccc12` [5p, 4-(3-Aminobenzofuran-2-yl)-1-(4-nitrobenzyl) pyridin-1-ium chloride]?
IC50 [1]: 28.3 ± 0.48 µM; IC50 [2, 7]: 20.6 ± 0.8 µM

What does the source list for `Nc1c(-c2cc[n+](Cc3ccccc3[N+](=O)[O-])cc2)oc2ccccc12` [5o, 4-(3-Aminobenzofuran-2-yl)-1-(2-nitrobenzyl) pyridin-1-ium chloride]?
IC50 [1]: 28.63 ± 0.13 µM; IC50 [2, 7]: 7.84 ± 0.05 µM

What does the source list for `Nc1c(-c2cc[n+](Cc3cccc(Cl)c3)cc2)oc2ccccc12` [5j, 4-(3-Aminobenzofuran-2-yl)-1-(3-chlorobenzyl) pyridin-1-ium chloride]?
IC50 [1]: 18.8 ± 1.11 µM; IC50 [2, 7]: 2.99 ± 0.03 µM

With `Nc1c(-c2cc[n+](Cc3ccc(F)cc3)cc2)oc2ccccc12.[Cl-]` [5h, 4-(3-Aminobenzofuran-2-yl)-1-(4-fluorobenzyl) pyridin-1-ium chloride] as the compound, how does the viability at 24 h [4] read?
The viability at 24 h was 88.2 ± 2.4%.

And the “Effectiveness relative to donepezil in inhibition of self-induced Aβ aggregation” value ([5]; ThT assay)?
Its value is “about 2 fold”.

And the inhibition at 10 µM [5, 8]?
The inhibition at 10 µM was 38.8 ± 2.8%.

What about the IC50 [1] of the same compound?
Its IC50 is 5.05 ± 0.73 µM.

And the inhibition at 100 µM [6]?
Its inhibition at 100 µM is 35.6 ± 1.5%.

And the IC50 [2]?
The IC50 was 0.88 ± 0.04 µM.

Which IC50 [1] does the source give for `Nc1c(-c2cc[n+](Cc3cccc(F)c3)cc2)oc2ccccc12` [5g, 4-(3-Aminobenzofuran-2-yl)-1-(3-fluorobenzyl) pyridin-1-ium chloride] here?
Its IC50 is 2.89 ± 0.42 µM.

What about the IC50 [2, 7] of the same compound?
The IC50 was 1.68 ± 0.02 µM.

For `Nc1c(-c2cc[n+](Cc3ccccc3Cl)cc2)oc2ccccc12` [5i, 4-(3-Aminobenzofuran-2-yl)-1-(2-chlorobenzyl) pyridin-1-ium chloride], which viability at 24 h [4] is on record?
Its viability at 24 h is 90.2 ± 4.1%.

And the inhibition at 10 µM [5, 8]?
Its inhibition at 10 µM is 24.8 ± 1.5%.

What about the IC50 [1] of the same compound?
The IC50 was 0.99 ± 0.05 µM.

And the inhibition at 100 µM [6]?
Its inhibition at 100 µM is 26.5 ± 3.8%.

What about the IC50 [2] of the same compound?
Its IC50 is 0.7 ± 0.01 µM.
